Experimental data reported in patent US6602515B2, “Photo stable organic sunscreen compounds with antioxidant properties and compositions obtained therefrom” (EM Industries, priority 2001, dated 2003).

How the values were obtained:
[1] = Absorbance and molar absorptivity of sunscreen compounds; format: physicochemical; conditions: for ελMax / λMax: 70% ethanol/30% H2O solution; for molar absorption compared to Avobenzone: 70% ethanol and 30% isopropyl myristate
Experimental: Each exploratory sunscreen compound was dissolved in 70% ethanol/30% isopropyl myristate and/or 70% ethanol/30% water and the UV visible absorption spectrum measured with a Shimadza UV 2101-double beam spectrophotometer using the solvent as reference. A similar solution of Octocrylene was prepared and the UV-visible absorption spectrum measured. Each solution was then illuminated for two hours in the solar simulator. After illumination, the absorption spectrum was again measured each solution. […]

physchem = format: physicochemical
Experimental: Individual solutions of selected sunscreen compounds (2/1, 2/4, 2/5, 2/7 and 2/8) with Avobenzone were as follows. Each sunscreen compound was dissolved in 70% ethanol/30% H2O solution containing roughly an equal molar amount of Avobenzone. A similar solution containing Di-2-ethylhexyl-2,6-napthalene dicarboxylic acid (DENDA) and Avobenzone was also prepared. Each solution was then illuminated in the solar simulator as configured above for the photostability tests and aliquots of each solution were removed at 30-minute time intervals. These aliquots were injected into an HPLC and the loss of Avobenzone was followed with illumination time. The high performance liquid chromatograph (HPLC) used for all experiments reported therein incorporated a Spectra-Physics model P-200 pump with an Applied Biosystems model 785A UV-Visible detector with a Rheodyne manual injector incorporating a […] sample loop and a 150×4.6 mm reversed-phase C18 column (Alltech). All analyses were carried out under isocratic elution conditions using CH3OH/H2O mixtures for the mobile phase at a flow rate of […] per minute. It was necessary to employ HPLC separation of Avobenzone from each of the sunscreen compounds to quantify Avobenzone due to the absorption spectra overlap with some of these compounds.

[2] = Photostability, 2 hours illumination in Xe arc solar simulator, UV-visible absorption spectrum; format: physicochemical; conditions: for photostability compared to Octocrylene: 2 hours of illumination in the solar simulator
Description: The solar simulator used for illumination of the samples in the experiments was constructed incorporating a 1 kw Xe arc lamp, optical bench and sample illumination chamber. The lamp output was filtered through a water filter with a course window to remove most of the infrared radiation and optical filters to remove wavelengths below 290 nm. The output of the illumination system was focused onto the face of a 1 cm quartz Cuvette that was thermally equilibrated with a constant temperature water bath at 25 ° C. A magnetic stir was mounted under the Cuvette so that the samples could be stirred while being illuminated. An electric shutter was controlled by a dark room timer to provide precise control of illumination times. The solar simulator was constructed to provide illumination that closely matches terrestrial sunlight. The solar simulator delivered roughly 250 J/cm^2 over a 2-hour period of illumination in a 290-490 nm range. This irradiance was determined using two nitrobenzaldehyde chemical actinometry. The irradiance is much higher than other solar simulator systems which typically illuminate a large area in order to illuminate many samples simultaneously rather than being focused down to a very small area. Each exploratory sunscreen compound was dissolved in 70% ethanol/30% isopropyl myristate and/or 70% ethanol/30% water and the UV visible absorption spectrum measured with a Shimadza UV 2101-double beam spectrophotometer using the solvent as reference. A similar solution of Octocrylene was prepared and the UV-visible absorption spectrum measured. Each solution was then illuminated for two hours in the solar simulator. After illumination, the absorption spectrum was again measured each solution.

[3] = DPPH test method (antioxidant property, % reducing activity); format: biochemical; conditions: 20 minutes, 517 nm
Experimental: A DPPH concentrate (2.5×) of 25 mg of 1,1-Diphenyl-2-Picyrl-Hydrazyl ACS# 1898-66-4 (Sigma #D-9132, lot 99H3601) dissolved in 250 mL ethanol (USP), is prepared fresh on the measurement date. A DPPH working solution is then prepared by diluting 100 mL of this concentrate to a final volume of 250 mL ([…]). A blank 13×100 mm borosilicate glass screw top tube of ethanol (USP) is used to zero the spectrometer (Milton Roy, Spectronic 20+) at 517 nm and a control tube of DPPH working solution is measured under identical conditions, and taken as 0% activity. Aliquots of the 0.25% & 0.5% (RT & 45° C.) test solution are added to tubes followed by the rapid addition of 4 mL DPPH working solution then rapidly capped and mixed. After 20 minutes, the absorbance of each sample is read at 517 nm.
The percent reducing activity (% RA) is calculated using the following equation:
% Reduction Activity=100 A(0)-A(20)/A(0)
Where A(0) is the absorbance value of the DPPH working solution at 517 nm zeroed against an ethanol blank and A(20) is the absorbance at 517 nm, 20 minutes after combining the antioxidant with the DPPH working solution.
The concentration of antioxidant (mg/ml) in the final assay mixture is calculated based on the dilution of respective aliquots of each compound in the final assay volume and % RA tabulated and plotted as percent activity at each concentration in the dilution series.

[4] = after 2 hours of illumination in the solar simulator
[5] = 2.500 mg/ml in final assay mixture
[6] = 0.028 mg/ml in final assay mixture
[7] = 0.056 mg/ml in final assay mixture
[8] = 0.139 mg/ml in final assay mixture
[9] = 0.278 mg/ml in final assay mixture

## CCOC(=O)C(=Cc1cc(OC)c(OC)c(OC)c1)C(=O)OCC [2/1, diethyl-3,4,5-trimethoxy benzylidene malonate, reference compound]
[1]
  ελMax: 20000 M⁻¹ cm⁻¹
  λMax: 313 nm
physchem
  stabilization of Avobenzone, compared with DENDA: appear to stabilize Avobenzone as effectively as DENDA
[2]
  photostability compared to Octocrylene: comparable photo stabilities to Octocrylene
[2]; [4]
  photostability (retention of absorptivity), in words: retain most of their absorptivity
[3]; [5]
  % Reducing Activity: 0.0%

## CCOC(=O)C(C#N)=Cc1cc(OC)c(OC)c(OC)c1 [2/2, ethyl-alpha-cyano-3,4,5-trimethoxy cinnamate, reference compound]
[3]; [5]
  % Reducing Activity: 3%

## CCOC(=O)C(C#N)=Cc1cc(OC)c(O)c(OC)c1 [2/3, ethyl-alpha-cyano-3,5-dimethoxy-4-hydroxy cinnamate]
[3]; [6]
  % Reducing Activity: 5.2%
[3]; [7]
  % Reducing Activity: 8.4%
[3]; [8]
  % Reducing Activity: 11.3%
[3]; [9]
  % Reducing Activity: 15.5%
[3]; [5]
  % Reducing Activity: 25.40%

## CCOC(=O)C(=Cc1cc(OC)c(O)c(OC)c1)C(=O)OCC [2/4, diethyl-3,5-dimethoxy-4-hydroxy benzylidene malonate]
[1]
  molar absorption compared to Avobenzone: lower molar absorption than Avobenzone
  ελMax: 12000 M⁻¹ cm⁻¹
  λMax: 338 nm
physchem
  stabilization of Avobenzone, compared with DENDA: appear to stabilize Avobenzone as effectively as DENDA
[2]
  stability compared to Avobenzone: appear to be more stable than Avobenzone
  photostability compared to Octocrylene: comparable photo stabilities to Octocrylene
[2]; [4]
  photostability (retention of absorptivity), in words: retain most of their absorptivity
[3]; [6]
  % Reducing Activity: 5.2%
[3]; [7]
  % Reducing Activity: 12.8%
[3]; [8]
  % Reducing Activity: 29.51%
[3]; [9]
  % Reducing Activity: 33.4%
[3]; [5]
  % Reducing Activity: 71.70%

## CCOC(=O)C(=Cc1cc(OC)c(O)c(OC)c1)C(C)=O [2/5, ethyl-alpha-acetyl-3,5-dimethoxy-4-hydroxy cinnamate]
[1]
  molar absorption compared to Avobenzone: lower molar absorption than Avobenzone
  ελMax: 19000 M⁻¹ cm⁻¹
  λMax: 348 nm
physchem
  stabilization of Avobenzone, compared with DENDA: somewhat less effective than DENDA
[2]
  stability compared to Avobenzone: appear to be more stable than Avobenzone
  photostability compared to Octocrylene: comparable photo stabilities to Octocrylene
[2]; [4]
  photostability (retention of absorptivity), in words: retain most of their absorptivity
[3]; [6]
  % Reducing Activity: 20.7%
[3]; [7]
  % Reducing Activity: 31.0%
[3]; [8]
  % Reducing Activity: 47.3%
[3]; [9]
  % Reducing Activity: 59.9%

## CCOC(=O)C(C)=Cc1cc(OC)c(O)c(OC)c1 [2/7, ethyl-alpha-methyl-3,5-dimethoxy-4-hydroxy cinnamate]
[1]
  λMax: 314 nm
[2]; [4]
  loss of absorbance: 72%
[3]; [6]
  % Reducing Activity: 46.1%
[3]; [7]
  % Reducing Activity: 61.2%
[3]; [8]
  % Reducing Activity: 77.3%
[3]; [9]
  % Reducing Activity: 85.0%

## CCCCC(CC)COC(=O)C(=Cc1cc(OC)c(O)c(OC)c1)C(=O)OCC(CC)CCCC (stereo not shown) [2/8, di(2-ethyl-hexyl)-3,5-dimethoxy-4-hydroxy benzylidene malonate]
[1]
  ελMax: 16000 M⁻¹ cm⁻¹
  λMax: 340 nm
physchem
  stabilization of Avobenzone, compared with DENDA: appear to stabilize Avobenzone as effectively as DENDA
[2]; 2 hour period of illumination, not precise
  absorption after illumination relative to the initial value: approximately 82%
[3]; [6]
  % Reducing Activity: 8.5%
[3]; [7]
  % Reducing Activity: 13.0%
[3]; [8]
  % Reducing Activity: 23.2%
[3]; [9]
  % Reducing Activity: 33.7%

## COc1cc(C=C(C(=O)OCCC(C)C)C(=O)OCCC(C)C)cc(OC)c1O [2/10, di-iso-amyl-3,5-dimethoxy-4-hydroxy benzylidene malonate]
[3]; [6]
  % Reducing Activity: 10.2%
[3]; [7]
  % Reducing Activity: 14.6%
[3]; [8]
  % Reducing Activity: 22.3%
[3]; [9]
  % Reducing Activity: 30.1%

## COc1ccc(C(=O)CC(=O)c2ccc(C(C)(C)C)cc2)cc1 [Avobenzone, reference compound]
[1]
  ελMax: 25000 M⁻¹ cm⁻¹
  λMax: 360 nm
physchem
  half-life: ~3 h

## CCCCC(CC)COC(=O)c1ccc2cc(C(=O)OCC(CC)CCCC)ccc2c1 (stereo not shown) [DENDA, Di-2-ethylhexyl-2,6-napthalene dicarboxylic acid, reference compound]
physchem
  stabilization of Avobenzone, compared with DENDA: Initially the loss of Avobenzone was quite rapid but then seemed to become stable

## CCCCC(CC)COC(=O)C(C#N)=C(c1ccccc1)c1ccccc1 (stereo not shown) [Octocrylene, reference compound]
[2]; [4]
  photostability (retention of absorptivity), in words: no loss in absorptivity
